Source: PubChem BioAssay (NCI)
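Grown in 96-well plates, cells were treated for 48 hours with each compound at five concentrations. Insufficient inhibition: endpoint recorded as highest concentration tested. At the GI50, growth is halved. TGI is the concentration that stops growth completely.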

Assays:
Experiment in all cases: NCI-60 cell line screen, 48 h
SNB-75 CNS = system: SNB-75 CNS
OVCAR-4 ovarian = system: OVCAR-4 ovarian
NCI-H23 lung = system: NCI-H23 lung
MCF7 breast = system: MCF7 breast
UACC-257 melanoma = system: UACC-257 melanoma
MOLT-4 leukemia = system: MOLT-4 leukemia
NCI-H226 lung = system: NCI-H226 lung
OVCAR-8 ovarian = system: OVCAR-8 ovarian
HCT-116 colon = system: HCT-116 colon
OVCAR-5 ovarian = system: OVCAR-5 ovarian
UO-31 renal = system: UO-31 renal
MALME-3M melanoma = system: MALME-3M melanoma
U251 CNS = system: U251 CNS
M14 melanoma = system: M14 melanoma
A498 renal = system: A498 renal
NCI/ADR-RES ovarian = system: NCI/ADR-RES ovarian
EKVX NSCLC = system: EKVX NSCLC
PC-3 prostate = system: PC-3 prostate
RXF 393 renal = system: RXF 393 renal
786-0 renal = system: 786-0 renal
KM12 colon = system: KM12 colon
SW-620 colon = system: SW-620 colon
SF-539 CNS = system: SF-539 CNS
HT29 colon = system: HT29 colon
A549 NSCLC = system: A549 NSCLC
SNB-19 CNS = system: SNB-19 CNS
SK-MEL-5 melanoma = system: SK-MEL-5 melanoma
MDA-MB-231 breast = system: MDA-MB-231 breast
SR leukemia = system: SR leukemia
NCI-H460 lung = system: NCI-H460 lung
T-47D breast = system: T-47D breast
HCT-15 colon = system: HCT-15 colon
BT-549 breast = system: BT-549 breast
UACC-62 melanoma = system: UACC-62 melanoma
HL-60(TB) leukemia = system: HL-60(TB) leukemia
SK-MEL-28 melanoma = system: SK-MEL-28 melanoma
CAKI-1 renal = system: CAKI-1 renal
OVCAR-3 ovarian = system: OVCAR-3 ovarian
HOP-62 NSCLC = system: HOP-62 NSCLC
SN12C renal = system: SN12C renal
SK-MEL-2 melanoma = system: SK-MEL-2 melanoma
HCC-2998 colon = system: HCC-2998 colon
TK-10 renal = system: TK-10 renal
DU-145 prostate = system: DU-145 prostate
HS 578T breast = system: HS 578T breast
LOX IMVI melanoma = system: LOX IMVI melanoma
COLO 205 colon = system: COLO 205 colon
RPMI-8226 leukemia = system: RPMI-8226 leukemia
MDA-MB-435 = system: MDA-MB-435
K-562 leukemia = system: K-562 leukemia
SF-295 CNS = system: SF-295 CNS
ACHN renal = system: ACHN renal
CCRF-CEM leukemia = system: CCRF-CEM leukemia
SF-268 CNS = system: SF-268 CNS
SK-OV-3 ovarian = system: SK-OV-3 ovarian
HOP-92 NSCLC = system: HOP-92 NSCLC
IGROV1 ovarian = system: IGROV1 ovarian
NCI-H522 lung = system: NCI-H522 lung

Q: With Nc1ncc(-c2cnn(C3CCNCC3)c2)cc1-c1nc2ccccc2o1 as the molecule, how does the GI50 (SNB-75 CNS) read?
A: 1310 nM

Q: What about the TGI (SNB-75 CNS) of the same molecule?
A: 2670 nM

Q: And the GI50 (OVCAR-4 ovarian)?
A: 1300 nM

Q: What about the TGI (OVCAR-4 ovarian) of the same molecule?
A: 3530 nM

Q: What about the GI50 (NCI-H23 lung) of the same molecule?
A: 1350 nM

Q: What about the TGI (NCI-H23 lung) of the same molecule?
A: 12700 nM

Q: And the GI50 (MCF7 breast)?
A: 441 nM

Q: What about the TGI (MCF7 breast) of the same molecule?
A: 2130 nM

Q: What about the GI50 (UACC-257 melanoma) of the same molecule?
A: 2040 nM

Q: What about the TGI (UACC-257 melanoma) of the same molecule?
A: 3940 nM

Q: What about the GI50 (MOLT-4 leukemia) of the same molecule?
A: 361 nM

Q: And the TGI (MOLT-4 leukemia)?
A: 1320 nM

Q: And the GI50 (NCI-H226 lung)?
A: 1970 nM

Q: And the TGI (NCI-H226 lung)?
A: 6590 nM

Q: What about the GI50 (OVCAR-8 ovarian) of the same molecule?
A: 2590 nM

Q: What about the TGI (OVCAR-8 ovarian) of the same molecule?
A: 8900 nM

Q: And the GI50 (HCT-116 colon)?
A: 616 nM

Q: What about the TGI (HCT-116 colon) of the same molecule?
A: 2030 nM

Q: What about the GI50 (OVCAR-5 ovarian) of the same molecule?
A: 3280 nM

Q: And the TGI (OVCAR-5 ovarian)?
A: 11500 nM

Q: And the GI50 (UO-31 renal)?
A: 714 nM

Q: What about the TGI (UO-31 renal) of the same molecule?
A: 2350 nM

Q: And the GI50 (MALME-3M melanoma)?
A: 1720 nM

Q: And the TGI (MALME-3M melanoma)?
A: 3370 nM

Q: What about the GI50 (U251 CNS) of the same molecule?
A: 1480 nM

Q: What about the TGI (U251 CNS) of the same molecule?
A: 3260 nM

Q: What about the GI50 (M14 melanoma) of the same molecule?
A: 1210 nM

Q: And the TGI (M14 melanoma)?
A: 2540 nM

Q: And the GI50 (A498 renal)?
A: 1530 nM

Q: And the TGI (A498 renal)?
A: 3460 nM

Q: And the GI50 (NCI/ADR-RES ovarian)?
A: 3470 nM

Q: And the TGI (NCI/ADR-RES ovarian)?
A: 13400 nM

Q: What about the GI50 (EKVX NSCLC) of the same molecule?
A: 4400 nM

Q: What about the TGI (EKVX NSCLC) of the same molecule?
A: 17800 nM

Q: What about the GI50 (PC-3 prostate) of the same molecule?
A: 1590 nM

Q: What about the TGI (PC-3 prostate) of the same molecule?
A: 6680 nM

Q: And the GI50 (RXF 393 renal)?
A: 485 nM

Q: And the TGI (RXF 393 renal)?
A: 2250 nM

Q: What about the GI50 (786-0 renal) of the same molecule?
A: 1400 nM

Q: And the TGI (786-0 renal)?
A: 2920 nM

Q: And the GI50 (KM12 colon)?
A: 81.2 nM

Q: What about the TGI (KM12 colon) of the same molecule?
A: 1450 nM

Q: And the GI50 (SW-620 colon)?
A: 1090 nM

Q: And the TGI (SW-620 colon)?
A: 2380 nM

Q: What about the GI50 (SF-539 CNS) of the same molecule?
A: 1500 nM

Q: What about the TGI (SF-539 CNS) of the same molecule?
A: 2830 nM

Q: What about the GI50 (HT29 colon) of the same molecule?
A: 441 nM

Q: And the TGI (HT29 colon)?
A: 2630 nM

Q: What about the GI50 (A549 NSCLC) of the same molecule?
A: 1200 nM

Q: And the TGI (A549 NSCLC)?
A: 4270 nM

Q: And the GI50 (SNB-19 CNS)?
A: 3250 nM

Q: And the TGI (SNB-19 CNS)?
A: 10600 nM

Q: And the GI50 (SK-MEL-5 melanoma)?
A: 2030 nM

Q: And the TGI (SK-MEL-5 melanoma)?
A: 5470 nM

Q: What about the GI50 (MDA-MB-231 breast) of the same molecule?
A: 2320 nM

Q: What about the TGI (MDA-MB-231 breast) of the same molecule?
A: 6560 nM

Q: And the GI50 (SR leukemia)?
A: 266 nM

Q: What about the TGI (SR leukemia) of the same molecule?
A: 1090 nM

Q: What about the GI50 (NCI-H460 lung) of the same molecule?
A: 998 nM

Q: What about the TGI (NCI-H460 lung) of the same molecule?
A: 2540 nM

Q: What about the GI50 (T-47D breast) of the same molecule?
A: 1670 nM

Q: What about the TGI (T-47D breast) of the same molecule?
A: 4880 nM

Q: What about the GI50 (HCT-15 colon) of the same molecule?
A: 508 nM

Q: And the TGI (HCT-15 colon)?
A: 2500 nM

Q: What about the GI50 (BT-549 breast) of the same molecule?
A: 2440 nM

Q: And the TGI (BT-549 breast)?
A: 10200 nM

Q: And the GI50 (UACC-62 melanoma)?
A: 1600 nM

Q: And the TGI (UACC-62 melanoma)?
A: 3070 nM

Q: What about the GI50 (HL-60(TB) leukemia) of the same molecule?
A: 472 nM

Q: And the TGI (HL-60(TB) leukemia)?
A: 1660 nM

Q: And the GI50 (SK-MEL-28 melanoma)?
A: 1740 nM

Q: What about the TGI (SK-MEL-28 melanoma) of the same molecule?
A: 3170 nM

Q: What about the GI50 (CAKI-1 renal) of the same molecule?
A: 532 nM

Q: And the TGI (CAKI-1 renal)?
A: 2850 nM

Q: And the GI50 (OVCAR-3 ovarian)?
A: 1530 nM

Q: What about the TGI (OVCAR-3 ovarian) of the same molecule?
A: 3520 nM

Q: And the GI50 (HOP-62 NSCLC)?
A: 915 nM

Q: And the TGI (HOP-62 NSCLC)?
A: 5190 nM

Q: And the GI50 (SN12C renal)?
A: 478 nM

Q: And the TGI (SN12C renal)?
A: 4410 nM

Q: What about the GI50 (SK-MEL-2 melanoma) of the same molecule?
A: 1100 nM

Q: What about the TGI (SK-MEL-2 melanoma) of the same molecule?
A: 2720 nM

Q: What about the GI50 (HCC-2998 colon) of the same molecule?
A: 1180 nM

Q: And the TGI (HCC-2998 colon)?
A: 3090 nM

Q: And the GI50 (TK-10 renal)?
A: 924 nM

Q: What about the TGI (TK-10 renal) of the same molecule?
A: 4040 nM

Q: And the GI50 (DU-145 prostate)?
A: 1750 nM

Q: And the TGI (DU-145 prostate)?
A: 8860 nM

Q: And the GI50 (HS 578T breast)?
A: 1750 nM

Q: And the TGI (HS 578T breast)?
A: 4280 nM

Q: And the GI50 (LOX IMVI melanoma)?
A: 1200 nM

Q: What about the TGI (LOX IMVI melanoma) of the same molecule?
A: 2590 nM

Q: And the GI50 (COLO 205 colon)?
A: 1550 nM

Q: What about the TGI (COLO 205 colon) of the same molecule?
A: 3050 nM

Q: And the GI50 (RPMI-8226 leukemia)?
A: 857 nM

Q: What about the TGI (RPMI-8226 leukemia) of the same molecule?
A: 2700 nM

Q: What about the GI50 (MDA-MB-435) of the same molecule?
A: 1210 nM

Q: And the TGI (MDA-MB-435)?
A: 2620 nM

Q: What about the GI50 (K-562 leukemia) of the same molecule?
A: 309 nM

Q: What about the TGI (K-562 leukemia) of the same molecule?
A: 1070 nM

Q: What about the GI50 (SF-295 CNS) of the same molecule?
A: 1540 nM

Q: And the TGI (SF-295 CNS)?
A: 3430 nM

Q: And the GI50 (ACHN renal)?
A: 860 nM

Q: And the TGI (ACHN renal)?
A: 2710 nM

Q: What about the GI50 (CCRF-CEM leukemia) of the same molecule?
A: 235 nM

Q: What about the TGI (CCRF-CEM leukemia) of the same molecule?
A: 677 nM

Q: What about the GI50 (SF-268 CNS) of the same molecule?
A: 1740 nM

Q: What about the TGI (SF-268 CNS) of the same molecule?
A: 4580 nM

Q: And the GI50 (SK-OV-3 ovarian)?
A: 1110 nM

Q: What about the TGI (SK-OV-3 ovarian) of the same molecule?
A: 5780 nM

Q: And the GI50 (HOP-92 NSCLC)?
A: 553 nM

Q: What about the TGI (HOP-92 NSCLC) of the same molecule?
A: 2050 nM

Q: And the GI50 (IGROV1 ovarian)?
A: 211 nM

Q: And the TGI (IGROV1 ovarian)?
A: 891 nM

Q: What about the GI50 (NCI-H522 lung) of the same molecule?
A: 757 nM

Q: And the TGI (NCI-H522 lung)?
A: 2400 nM
